Consider four compounds from patent EP0818453B1, “Benzothiophene compounds and methods of use” (ELI LILLY AND COMPANY, priority 1996, dated 1998).

Molecules are shown by their SMILES. Marks after values point to notes of the source that are not given here.

The data set deals with ovariectomized rats. As to the kind of experiment: Ovariectomized rat model of postmenopausal hyperlipidemia (serum cholesterol, uterine weight, uterine eosinophil peroxidase). The format is in vivo. The conditions noted are these: for Serum Cholest. % Dec.: decrease versus ovariectomized controls; for Uterine Eosinophil (Vmax): eosinophil peroxidase, Vmaximum; for Uterine Weight % Inc: increase versus ovariectomized controls. How it is done:
Experimental models of postmenopausal hyperlipidemia are known in the art. Germane to this invention is the ovariectomized rat model which is detailed in U.S. 5,464,845.
Data presented in Table 1 show comparative results among ovariectomized rats, rats treated with 17-a-ethynyl estradiol(EE2), and rats treated with certain compounds of this invention. […] This uterine response to estrogen is well recognized in the art.
As expressed in the data below, estrogenicity also was assessed by evaluating the response of eosinophil infiltration into the uterus.
The data presented in Table 1 reflect the response per treatment group.

With `C[C@]12CC[C@@H]3c4ccc(O)cc4CC[C@H]3[C@@H]1CC[C@@H]2O` [17-b-Estradiol], the “Serum Cholest. % Dec.” value is recorded as 67.6* % (0.001 mg/kg PO), 57.5* % (0.01 mg/kg PO) and 58.7* % (0.1 mg/kg PO).
On to `Cl.O=C(c1ccc(-c2ccc(OCCN3CCCCC3)cc2)cc1)c1c(-c2ccc(O)cc2)sc2cc(O)ccc12` [Compound 5, [2-(4-Hydroxyphenyl)-6-hydroxybenzo[b]thien-3-yl] [4'-[2-(1-piperidinyl)ethoxy]biphenyl-4-yl]methanone hydrochloride], for which the “Serum Cholest. % Dec.” value is, setting by setting: (0.01 mg/kg PO) 15.9* %; (0.1 mg/kg PO) 66.7* %; (1.0 mg/kg PO) 87.3* %.
As to `O=C(c1ccc2cc(OCCN3CCCCC3)ccc2c1)c1c(-c2ccc(O)cc2)sc2cc(O)ccc12` [Compound 10, [2-(4-Hydroxyphenyl)-6-hydroxybenzo[b]thien-3-yl][6-[2-(1-piperidinyl)ethoxy]naphth-2-yl]methanone], the “Serum Cholest. % Dec.” value by setting is: (0.1 mg/kg PO) 39.4* %; (1.0 mg/kg PO) 59.3* %; (10.0 mg/kg PO) 69.1* %.
As to `C#C[C@]1(O)CC[C@H]2[C@@H]3CCc4cc(O)ccc4[C@H]3CC[C@@]21C` [EE2, 17-a-ethynyl estradiol], where the note is “0.001 mg/kg PO”, the “Serum Cholest. % Dec.” value is recorded as -1.9%, the “Uterine Eosinophil (Vmax)” value is given as 20* and the “Uterine Weight % Inc” value was 35.8* %. Further, for the setting “0.01 mg/kg PO”, the “Serum Cholest. % Dec.” value was determined as 12%, the “Uterine Eosinophil (Vmax)” value was 25.6* and the “Uterine Weight % Inc” value is given as 61.0* %. Further, where the note is “0.1 mg/kg PO”, the “Serum Cholest. % Dec.” value is listed as 77.7* %, the “Uterine Eosinophil (Vmax)” value is 276.6* and the “Uterine Weight % Inc” value is reported as 129.6* %. In addition, the uterine weight entry (0.1 mg/kg/day orally, versus ovariectomized animals, result in words) was “substantially greater than the uterine weight of the ovariectomized animals”. In addition, for the setting “orally administered at 0.1 mg/kg/day, result in words”, the serum cholesterol entry was “caused a decrease in serum cholesterol”. Further, the “eosinophil infiltration into the uterus” value (stromal layer of ovariectomized rat uteri, result in words) was “substantial and expected increase in eosinophil infiltration”.
